This is an account of results in EPA's ToxRefDB 2.

Data set [1] relates to mouse. Particulars: Prenatal developmental toxicity study, cd1, Injection, Intravenous, dose end: 12 GD.
The subject of data set [2] is mouse. To be noted: Carcinogenicity, b6c3f1, Dermal, Topical, dose end: 2 year, group: systemic.
For data set [3], the system named is rat. To be noted: Combined chronic toxicity/carcinogenicity; fischer; Dermal; Topical; dose end: 2 year; group: systemic; systemic / pathology microscopic / pituitary gland / adenoma.
Data set [4] relates to rat. Particulars: Subchronic oral toxicity in rodents, fischer, Dermal, Topical, dose end: 13 week, group: systemic.
Data set [5] relates to rat. To be noted: Subchronic oral toxicity in rodents, fischer, Gavage/Intubation, dose end: 13 week, group: systemic.
The subject of data set [6] is mouse. To be noted: Subchronic oral toxicity in rodents, b6c3f1, Gavage/Intubation, dose end: 13 week, group: systemic.
Data set [7] deals with mouse. To be noted: Combined chronic toxicity/carcinogenicity, b6c3f1, Oral, Gavage/Intubation, dose end: 2 year, group: systemic.
Data set [8] concerns rat. To be noted: Combined chronic toxicity/carcinogenicity; fischer; Oral; Gavage/Intubation; dose end: 2 year; group: systemic; systemic / in life observation / body weight / body weight.
In data set [9] the test system is rat. To be noted: Prenatal developmental toxicity study, other, Oral, Gavage/Intubation, dose end: 15 GD.
Data set [10] concerns rat. Particulars: Prenatal developmental toxicity study, sprague dawley, Oral, Gavage/Intubation, dose end: 15 GD.
Data set [11] relates to rat. Particulars: Subchronic dermal toxicity, sprague dawley, Topical, dose end: 91 day, group: systemic, systemic / in life observation / clinical signs / erythema + systemic / in life observation / clinical signs / scabbing + systemic / in life….
Data set [12] relates to rat. To be noted: Combined chronic toxicity/carcinogenicity, fischer, Oral, Gavage/Intubation, dose end: 103 week, group: systemic.
Data set [13] has as its system mouse. Particulars: Subchronic oral toxicity in rodents, b6c3f1, Gavage/Intubation, dose end: 13 week, group: systemic, systemic / in life observation / clinical signs / fur (altered appearance) + systemic / in life observation / clinical signs / reduced ….
Data set [14] relates to rat. To be noted: Subchronic oral toxicity in rodents, fischer, Gavage/Intubation, dose end: 13 week, group: systemic. This is another data set of the same source.
The subject of data set [15] is mouse. To be noted: Combined chronic toxicity/carcinogenicity, b6c3f1, Oral, Gavage/Intubation, dose end: 103 week, group: systemic.
The test system of data set [16] is mouse. To be noted: Subchronic oral toxicity in rodents, b6c3f1, Feed, dose end: 13 week, group: systemic, systemic / in life observation / body weight / body weight gain.
Data set [17] has as its system rat. To be noted: Subchronic oral toxicity in rodents, fischer, Feed, dose end: 13 week, group: systemic, systemic / in life observation / body weight / body weight gain.
Data set [18] concerns rat. Particulars: Carcinogenicity, fischer, Oral, Feed, dose end: 103 week, group: systemic.
In data set [19] the test system is mouse. To be noted: Carcinogenicity; b6c3f1; Oral; Feed; dose end: 103 week; group: systemic; systemic / pathology microscopic / kidney / vacuolization.
Data set [20] concerns mouse. Particulars: Carcinogenicity; b6c3f1; Oral; Feed; dose end: 108 week; group: systemic; systemic / in life observation / body weight / body weight.
For data set [21], the system named is rat. Particulars: Subchronic oral toxicity in rodents, fischer, Feed, dose end: 7 week, group: systemic, systemic / in life observation / body weight / body weight.
For data set [22], the system named is mouse. To be noted: Subchronic oral toxicity in rodents, b6c3f1, Feed, dose end: 7 week, group: systemic, systemic / in life observation / body weight / body weight.
Data set [23] has as its system rat. Particulars: Carcinogenicity; fischer; Oral; Feed; dose end: 107 week; group: systemic; systemic / in life observation / body weight / body weight.
The mark [24] stands for this setting: group: developmental, developmental / developmental malformation / general / [other] + systemic / in life observation / body weight / fetal weight.
The mark [25] stands for this setting: group: developmental, systemic / in life observation / body weight / fetal weight.
The mark [26] stands for this setting: group: maternal, reproductive / reproductive performance / resorptions / resorptions + systemic / in life observation / body weight / body weight gain + ….
The mark [27] stands for this setting: systemic / in life observation / body weight / body weight + systemic / in life observation / mortality / mortality.
[28] abbreviates: systemic / pathology microscopic / lung / congestion + systemic / pathology microscopic / pancreas / vacuolization + systemic / in life ….
[29] abbreviates: systemic / in life observation / body weight / body weight.
Setting [30] is: systemic / in life observation / body weight / body weight + systemic / in life observation / clinical signs / alopecia + systemic / in life….
Where [31] appears, read: systemic / pathology microscopic / kidney / nephropathy.
Setting [32] is: systemic / in life observation / body weight / body weight + systemic / pathology microscopic / kidney / nephropathy.
[33] abbreviates: systemic / in life observation / body weight / body weight + systemic / pathology microscopic / kidney / nephropathy + systemic / pathology ….
The mark [34] stands for this setting: group: developmental, developmental / developmental malformation / bone / ossification sites + developmental / developmental malformation / bone / full ….
Setting [35] is: group: maternal, systemic / in life observation / body weight / body weight + systemic / in life observation / food consumption / food consumption + systemic….
Setting [36] is: group: maternal, systemic / in life observation / body weight / body weight.
Setting [37] is: group: maternal, systemic / in life observation / body weight / body weight + systemic / in life observation / clinical signs / body surface staining + ….
[38] abbreviates: systemic / pathology microscopic / kidney / hyperplasia + systemic / pathology microscopic / kidney / mineralization.
[39] abbreviates: systemic / pathology microscopic / kidney / hyperplasia + systemic / pathology microscopic / kidney / mineralization + systemic / pathology ….
The mark [40] stands for this setting: systemic / in life observation / body weight / body weight + systemic / in life observation / clinical signs / fur (altered appearance) + ….
Where [41] appears, read: systemic / pathology microscopic / kidney / casts + systemic / pathology microscopic / kidney / regeneration.
The mark [42] stands for this setting: systemic / pathology microscopic / liver / cytomegaly + systemic / pathology microscopic / liver / multinucleated.
Where [43] appears, read: systemic / in life observation / body weight / body weight gain + systemic / pathology microscopic / eye / cataract + systemic / pathology ….

Some results are limits rather than exact numbers.

As a reminder, the LOAEL is the lowest dose or exposure tested at which an adverse effect was seen. As a reminder, the NOAEL is the highest tested level that showed no adverse finding. Turning to `OCCCl` [2-Chloroethanol], the LOAEL in data set [1] (setting [24]) is over 120 mg/kg/day; in [1] (setting [26]), over 120 mg/kg/day; in data set [2] (systemic / pathology microscopic / skin / inflammation + systemic / pathology microscopic / skin / ulcer) it was 411 mg/kg/day; in data set [3] it was over 100 mg/kg/day; in data set [4] (systemic / pathology microscopic / lung / congestion + systemic / pathology microscopic / pancreas / vacuolization), 500 mg/kg/day. In addition, the no observed adverse effect level (NOAEL) in data set [1] (setting [24]) is at least 120 mg/kg/day; in [1] (setting [26]), at least 120 mg/kg/day; in data set [2] (systemic / pathology microscopic / skin / inflammation + systemic / pathology microscopic / skin / ulcer + systemic / in life observation / …) it was 180 mg/kg/day; in [3] it was at least 100 mg/kg/day; in [4] (setting [28]), 250 mg/kg/day. For the same compound, the LEL in data set [1] (setting [25]) amounted to 60 mg/kg/day; in [1] (setting [26]), 120 mg/kg/day; in [2] (setting [27]), 180 mg/kg/day; in [3], 100 mg/kg/day; in [4] (systemic / pathology microscopic / pancreas / vacuolization + systemic / in life observation / mortality / mortality), 250 mg/kg/day. Also, the NEL in [1] (setting [25]) was under 60 mg/kg/day; in data set [1] (setting [26]), 60 mg/kg/day; in data set [2] (setting [27]), under 180 mg/kg/day; in [3], 50 mg/kg/day; in [4] (setting [28]) it was 125 mg/kg/day.
Consider `CCCCCCc1ccc(O)cc1O` [4-Hexylresorcinol], for which the LEL in [5] (setting [29]) was 125 mg/kg/day; in data set [6] (setting [31]), 125 mg/kg/day; in data set [7] (setting [33]), 62.5 mg/kg/day; in [8] it was 125 mg/kg/day. Further, the lowest observed adverse effect level (LOAEL) in [5] (setting [29]) turned out to be 125 mg/kg/day; in data set [6] (setting [31]), 250 mg/kg/day; in [7] (setting [32]), 62.5 mg/kg/day; in data set [8], 125 mg/kg/day. In addition, the NEL was 62.5 mg/kg/day in [5] (setting [30]), 62.5 mg/kg/day in [6] (systemic / pathology microscopic / kidney / nephropathy + systemic / in life observation / body weight / body weight + systemic / in life …), under 62.5 mg/kg/day in data set [7] (setting [33]) and 62.5 mg/kg/day in [8]. The no observed adverse effect level (NOAEL) in data set [5] (setting [30]) was 62.5 mg/kg/day; in data set [6] (systemic / pathology microscopic / kidney / nephropathy + systemic / in life observation / mortality / mortality) it was 125 mg/kg/day; in data set [7] (setting [32]), under 62.5 mg/kg/day; in data set [8], 62.5 mg/kg/day.
Take `Cc1cc(C)n(CO)n1` [(3,5-Dimethyl-1H-pyrazol-1-yl)methanol]: the LEL in data set [9] (setting [34]) came to 150 mg/kg/day; in data set [9] (setting [35]) it was 150 mg/kg/day; in data set [10] (setting [25]), 400 mg/kg/day; in [10] (setting [37]), 100 mg/kg/day; in data set [11] it was 50 mg/kg/day. For the same compound, the lowest-observed-adverse-effect level (LOAEL) was 150 mg/kg/day in data set [9] (setting [34]); 150 mg/kg/day in [9] (group: maternal, systemic / in life observation / body weight / body weight + systemic / in life observation / food consumption / food consumption); 400 mg/kg/day in data set [10] (setting [25]); 100 mg/kg/day in data set [10] (setting [36]); 50 mg/kg/day in [11]. The NEL in [9] (setting [34]) was 75 mg/kg/day; in [9] (setting [35]), 75 mg/kg/day; in [10] (setting [25]), 200 mg/kg/day; in data set [10] (setting [37]) it was under 100 mg/kg/day; in [11], under 50 mg/kg/day. For the same compound, the NOAEL was 75 mg/kg/day in [9] (setting [34]); 75 mg/kg/day in data set [9] (setting [35]); 200 mg/kg/day in data set [10] (setting [25]); under 100 mg/kg/day in data set [10] (setting [36]); under 50 mg/kg/day in data set [11].
`C=C(C)[C@H]1CC=C(C)CC1` [D-Limonene]: the LOAEL is 75 mg/kg/day in data set [12] (setting [38]), over 2000 mg/kg/day in data set [13], over 2400 mg/kg/day in data set [14] (setting [40]) and 1000 mg/kg/day in data set [15] (setting [29]). The NOAEL was under 75 mg/kg/day in [12] (setting [38]), at least 2000 mg/kg/day in [13], at least 2400 mg/kg/day in data set [14] (setting [40]) and 500 mg/kg/day in [15] (setting [29]). Moreover, the LEL in [12] (setting [39]) amounted to 75 mg/kg/day; in [13], 1000 mg/kg/day; in data set [14] (setting [41]), 150 mg/kg/day; in [15] (setting [42]), 500 mg/kg/day. In addition, the NEL in data set [12] (setting [39]) was under 75 mg/kg/day; in data set [13] it was 500 mg/kg/day; in data set [14] (setting [41]) it was under 150 mg/kg/day; in [15] (setting [42]) it was 250 mg/kg/day.
Turning to `OC[C@@H](O)[C@@H](O)[C@H](O)[C@H](O)CO` [D-Mannitol], the LEL was over 7500 mg/kg/day in data set [16], 2500 mg/kg/day in [17], 1250 mg/kg/day in data set [18] (setting [43]) and 3750 mg/kg/day in [19]. Further, the lowest-observed-adverse-effect level (LOAEL) in [16] is over 7500 mg/kg/day; in data set [17], 2500 mg/kg/day; in [18] (systemic / in life observation / body weight / body weight gain), 2500 mg/kg/day; in data set [19] it was 3750 mg/kg/day. The NEL in data set [16] was at least 7500 mg/kg/day; in data set [17], 1250 mg/kg/day; in data set [18] (setting [43]), under 1250 mg/kg/day; in data set [19] it was under 3750 mg/kg/day. Further, the no-observed-adverse-effect level (NOAEL) in data set [16] is at least 7500 mg/kg/day; in data set [17] it was 1250 mg/kg/day; in [18] (setting [43]), 1250 mg/kg/day; in data set [19], under 3750 mg/kg/day.
Turning to `CCN(CC)C(=S)SSC(=S)N(CC)CC` [Disulfiram], in data set [20], the LEL was found to be 15 mg/kg/day, the LOAEL amounted to 15 mg/kg/day, the NEL is under 15 mg/kg/day and the NOAEL was under 15 mg/kg/day. In [21], this compound showed an LEL of 75 mg/kg/day, an LOAEL of 75 mg/kg/day, an NEL of under 75 mg/kg/day and a no-observed-adverse-effect level (NOAEL) of under 75 mg/kg/day. Besides, in data set [22], the LEL turned out to be 150 mg/kg/day, the lowest-observed-adverse-effect level (LOAEL) was 150 mg/kg/day, the NEL amounted to 75 mg/kg/day and the NOAEL stood at 75 mg/kg/day. In [23], this compound gave an LEL of 15 mg/kg/day, an LOAEL of over 30 mg/kg/day, an NEL of under 15 mg/kg/day and a no observed adverse effect level (NOAEL) of at least 30 mg/kg/day.
